We go through three substances from publication PMC5361186 (Scientific Reports, 2017).

Data set [1] deals with T1, α-chymotrypsin (Bos taurus, UniProt P00766, DEL14-15/DEL147-148).
T1 construct: purchased Sigma-Aldrich (Steinheim, Germany)
The data set is described as follows: Resistance to chymotryptic cleavage. The class given is in vitro ADME, bovine pancreas. To be noted: peptide 10 μg/ml, 0.1 mol/L TRIS-HCl pH 7.8, urea 120 mg/mL, α-chymotrypsin E:P 1:200, 24 h, 37 °C. Here is the method: Preliminary experiments using a combination of pepsin and trypsin/chymotrypsin (PTC) for enzymatic hydrolysis were performed with the 33-mer. This PTC hydrolysate of the 33-mer was analysed by untargeted LC-MS/MS followed by data evaluation using the MS/MS ions search module of the Mascot software based on the NCBI database (National Library of Medicine, Bethesda, MD, USA). In addition to the original 33-mer, the truncated forms after N-terminal removal of leucine resulting in a 32-mer (m/z 950.0, 4+ and m/z 1266.3, 3+) and pyro-32-mer (m/z 945.7, 4+ and m/z 1260.6, 3+) were identified, but no 30-mer (m/z 889.7, 4+ and m/z 1185.9, 3+) after potential removal of N-terminal LQL. The ratio 33-mer/32-mer/pyro-32-mer was about 12/76/12. To see whether cleavage of the N-terminal leucine could be minimised, only chymotrypsin was used for further experiments. Therefore, the 33-mer peptide was incubated with chymotrypsin using exactly the same conditions as described for the samples to check its resistance towards cleavage, because it contains two potential chymotryptic cleavage sites at positions L1 and L3. […] Full MS/MS scans were also done for the chymotryptic hydrolysates of the albumin/globulin and gliadin fractions obtained from wheat cv. MJO. […] This is consistent with the original report by Shan et al.[4] who only observed pepsin-catalysed cleavage of the N-terminal leucine. Additionally, no analyte loss is expected to take place during sample preparation, which involves the removal of albumins/globulins.
First, flours (150–200 mg) were defatted with pentane/ethanol (95/5, v/v; 2 × 2.0 mL)[40]. The gliadin fractions from the different defatted flours were extracted as described above. […] The obtained peptide mixture was dried using a vacuum centrifuge (40 °C, 6 h, 800 Pa), re-dissolved in FA (0.1%, v/v, 500 μL), filtered (0.45 μm) and analysed by targeted LC-MS/MS. […] MJO, which were all analysed by untargeted LC-MS/MS. […]

Data set [2] deals with α-chymotrypsin. The data set is described as follows: α-chymotrypsin (E:P ratio of 1:200) in TRIS-HCl-buffer (0.1 mol/L TRIS-HCl, pH 7.8, urea 120 mg/mL). The following applies: bovine pancreas, 37 °C, up to 24 h.
For data set [3], the system named is intestinal peptidases. As to the kind of experiment: intestinal peptidases. To be noted: cited from earlier work.
The test system of data set [4] is pepsin and trypsin/chymotrypsin (PTC). The data set is described as follows: pepsin (in 0.01 mol/L HCl, pH 2.0, E:P ratio of 1:25) followed by trypsin and α-chymotrypsin (in 0.05 mol/L phosphate buffer, pH 6.5, E:P ratio of 1:200). To be noted: porcine gastric mucosa (pepsin); bovine pancreas (trypsin, α-chymotrypsin), 37 °C, up to 60 min (pepsin) followed by 120 min (trypsin and α-chymotrypsin).

Data set [5] has as its system tissue transglutaminase (TG2). As to the kind of experiment: tissue transglutaminase (TG2). The following applies: cited from earlier work.
The test system of a further data set is pepsin. As to the kind of experiment: pepsin. To be noted: cited from earlier work.
Data set [6] deals with intestinal peptidases. To be noted: 5 (Shan et al. 2002); cited from earlier work. From the text:
All gluten protein fractions, namely the alcohol-soluble prolamins and the insoluble glutelins, contain CD-active epitopes. The prolamin fraction is particularly rich in proline and glutamine and the numerous proline residues lead to a high resistance to complete proteolytic digestion by human gastric, pancreatic, and brushborder enzymes. […] The 33-mer is widely ca ...

Data set [7] deals with pepsin and trypsin/chymotrypsin (PTC). The data set is described as follows: Enzymatic hydrolysis of the 33-mer with pepsin and trypsin/chymotrypsin (PTC). It counts as in vitro ADME. To be noted: untargeted LC-MS/MS. Here is the method:
Preliminary experiments using a combination of pepsin and trypsin/chymotrypsin (PTC) for enzymatic hydrolysis were performed with the 33-mer. This PTC hydrolysate of the 33-mer was analysed by untargeted LC-MS/MS followed by data evaluation using the MS/MS ions search module of the Mascot software based on the NCBI database (National Library of Medicine, Bethesda, MD, USA). In addition to the original 33-mer, the truncated forms after N-terminal removal of leucine resulting in a 32-mer (m/z 950.0, 4+ and m/z 1266.3, 3+) and pyro-32-mer (m/z 945.7, 4+ and m/z 1260.6, 3+) were identified, but no 30-mer (m/z 889.7, 4+ and m/z 1185.9, 3+) after potential removal of N-terminal LQL. The ratio 33-mer/32-mer/pyro-32-mer was about 12/76/12. To see whether cleavage of the N-terminal leucine could be minimised, only chymotrypsin was used for further experiments. […]
First, flours (150–200 mg) were defatted with pentane/ethanol (95/5, v/v; 2 × 2.0 mL)[40]. […] The obtained peptide mixture was dried using a vacuum centrifuge (40 °C, 6 h, 800 Pa), re-dissolved in FA (0.1%, v/v, 500 μL), filtered (0.45 μm) and analysed by targeted LC-MS/MS. […] MJO, which were all analysed by untargeted LC-MS/MS. […]

Several values for one entry are separate records, joined by “and”; a condition that tells them apart may be missing. Equal entries are not always repeated. No end group written: not given here.

“LQLQP*FPQPQLPYPQPQLPYPQPQLPYPQ*PQ*P*F [*33-mer, [13C28]- and [15N4]-labelled 33-mer peptide used as isotopically labelled internal standard]”: the “stability towards chymotryptic cleavage, looking for *32-mer, pyro-*32-mer and *30-mer” value on α-chymotrypsin [1] (full MS/MS scans) is recorded as “stable under the conditions applied”.

Consider LQLQPFPQPQLPYPQPQLPYPQPQLPYPQPQPF, for which the not cleaved result in the data set on α-chymotrypsin [2] is given as “no detectable amounts of 32-mer, pyro-32-mer or 30-mer, only the intact 33-mer”; in the data set on intestinal peptidases [3] it was “resistant to cleavage by intestinal peptidases”; in data set [4] it was “no 30-mer identified”. Moreover, the cleaved bond entry (in data set [4]; in the data set with pepsin) was “leucine1-Q” in each case. For the same substance, the fragment found entry in data set [4] was “pyro-32-mer”; in data set [5] it was 33-mer deamidated at glutamine 72 and 33-mer deamidated at glutamine 65.

Consider “LQLQPFPQPQLPYPQPQLPYPQPQLPYPQPQPF [33-mer]”, for which the “forms detected after incubation with chymotrypsin, full MS/MS scans of the m/z of 32-mer, pyro-32-mer and 30-mer” value on α-chymotrypsin [1] (full MS/MS scans, target mass ± 1) is listed as “only the intact 33-mer”. Also, the “truncated forms after incubation with chymotrypsin, untargeted LC-MS/MS” value on α-chymotrypsin [1] (untargeted LC-MS/MS) is listed as “no truncated forms”. Also, the “cleavage by intestinal peptidases” value with intestinal peptidases [6] is reported as “resistant to cleavage by intestinal peptidases”. Besides, the “ratio 33-mer/32-mer/pyro-32-mer in the PTC hydrolysate” value in data set [7] (pepsin in 0.01 mol/L HCl, pH 2.0, 60 min, 37 °C, E:P 1:25, then trypsin and α-chymotrypsin in 0.05 mol/L phosphate buffer, pH 6.5, 120 min, 37 °C, E:P 1:200, Mascot, preliminary experiments) is reported as “about 12/76/12”. Moreover, the “30-mer after potential removal of N-terminal LQL in the PTC hydrolysate” value in data set [7] (same PTC conditions as E1) is on record as “no 30-mer”.
